Source: the NIST ThermoML archive (doi:10.1021/je0602824)

Assay: xn = mol fraction of the nth substance listed
Settings: 101 kPa, Liquid

CCn1cc[n+](C)c1.O=C([O-])C(F)(F)F [1-ethyl-3-methylimidazolium trifluoroacetate] + O
Settings | mass density [kg/m3] | viscosity [mPa·s]
278.15 K, x2 = 0 | 1306.89 | 78
278.15 K, x2 = 0.2042 | – | 56
278.15 K, x2 = 0.205 | 1299.84 | –
278.15 K, x2 = 0.3952 | – | 40
278.15 K, x2 = 0.3983 | 1291.27 | –
278.15 K, x2 = 0.5808 | 1278 | 25
278.15 K, x2 = 0.7565 | – | 16
278.15 K, x2 = 0.7573 | 1248.38 | –
278.15 K, x2 = 0.842 | 1216.87 | –
278.15 K, x2 = 0.9256 | 1151.47 | 6
278.15 K, x2 = 0.9667 | 1086.88 | –
278.15 K, x2 = 0.9912 | 1026.68 | –
288.15 K, x2 = 0 | 1298.81 | 48
288.15 K, x2 = 0.2042 | – | 35
288.15 K, x2 = 0.205 | 1291.82 | –
288.15 K, x2 = 0.3952 | – | 26
288.15 K, x2 = 0.3983 | 1283.25 | –
288.15 K, x2 = 0.5808 | 1269.93 | 17
288.15 K, x2 = 0.7565 | – | 11
288.15 K, x2 = 0.7573 | 1240.21 | –
288.15 K, x2 = 0.842 | 1208.86 | –
288.15 K, x2 = 0.9256 | 1144.67 | 5
288.15 K, x2 = 0.9667 | 1082.51 | –
288.15 K, x2 = 0.9912 | 1024.93 | –
298.15 K, x2 = 0 | 1290.8 | 32
298.15 K, x2 = 0.2042 | – | 24
298.15 K, x2 = 0.205 | 1283.85 | –
298.15 K, x2 = 0.3952 | – | 18
298.15 K, x2 = 0.3983 | 1275.26 | –
298.15 K, x2 = 0.5808 | 1261.85 | 12
298.15 K, x2 = 0.7565 | – | 8
298.15 K, x2 = 0.7573 | 1231.95 | –
298.15 K, x2 = 0.842 | 1200.76 | –
298.15 K, x2 = 0.9256 | 1137.65 | 4
298.15 K, x2 = 0.9667 | 1077.55 | –
298.15 K, x2 = 0.9912 | 1022.15 | –
308.15 K, x2 = 0 | 1282.85 | 23
308.15 K, x2 = 0.2042 | – | 17
308.15 K, x2 = 0.205 | 1275.92 | –
308.15 K, x2 = 0.3952 | – | 14
308.15 K, x2 = 0.3983 | 1267.29 | –
308.15 K, x2 = 0.5808 | 1253.77 | 9
308.15 K, x2 = 0.7565 | – | 6
308.15 K, x2 = 0.7573 | 1223.66 | –
308.15 K, x2 = 0.842 | 1192.57 | –
308.15 K, x2 = 0.9256 | 1130.4 | 3
308.15 K, x2 = 0.9667 | 1072.06 | –
308.15 K, x2 = 0.9912 | 1018.5 | –
318.15 K, x2 = 0 | 1274.95 | 17
318.15 K, x2 = 0.2042 | – | 13
318.15 K, x2 = 0.205 | 1268.04 | –
318.15 K, x2 = 0.3952 | – | 10
318.15 K, x2 = 0.3983 | 1259.34 | –
318.15 K, x2 = 0.5808 | 1245.67 | 8
318.15 K, x2 = 0.7565 | – | 5
318.15 K, x2 = 0.7573 | 1215.3 | –
318.15 K, x2 = 0.842 | 1184.27 | –
318.15 K, x2 = 0.9256 | 1122.93 | 3
318.15 K, x2 = 0.9667 | 1066.08 | –
318.15 K, x2 = 0.9912 | 1014.11 | –
328.15 K, x2 = 0 | 1267.12 | 13
328.15 K, x2 = 0.2042 | – | 10
328.15 K, x2 = 0.205 | 1260.21 | –
328.15 K, x2 = 0.3952 | – | 8
328.15 K, x2 = 0.3983 | 1251.41 | –
328.15 K, x2 = 0.5808 | 1237.55 | 6
328.15 K, x2 = 0.7565 | – | 5
328.15 K, x2 = 0.7573 | 1206.84 | –
328.15 K, x2 = 0.842 | 1175.86 | –
328.15 K, x2 = 0.9256 | 1115.2 | 3
328.15 K, x2 = 0.9667 | 1059.66 | –
328.15 K, x2 = 0.9912 | 1009.07 | –
338.15 K, x2 = 0 | 1259.35 | 10
338.15 K, x2 = 0.2042 | – | 8
338.15 K, x2 = 0.205 | 1252.42 | –
338.15 K, x2 = 0.3952 | – | 7
338.15 K, x2 = 0.3983 | 1243.49 | –
338.15 K, x2 = 0.5808 | 1229.41 | 6
338.15 K, x2 = 0.7565 | – | 4
338.15 K, x2 = 0.7573 | 1198.32 | –
338.15 K, x2 = 0.842 | 1167.33 | –
338.15 K, x2 = 0.9256 | 1107.28 | 2
338.15 K, x2 = 0.9667 | 1052.83 | –
338.15 K, x2 = 0.9912 | 1002.87 | –
348.15 K, x2 = 0 | 1251.63 | 9
348.15 K, x2 = 0.2042 | – | 7
348.15 K, x2 = 0.205 | 1244.66 | –
348.15 K, x2 = 0.3952 | – | 6
348.15 K, x2 = 0.3983 | 1235.59 | –
348.15 K, x2 = 0.5808 | 1221.23 | 5
348.15 K, x2 = 0.7565 | – | 4
348.15 K, x2 = 0.7573 | 1189.98 | –
348.15 K, x2 = 0.842 | 1158.69 | –
348.15 K, x2 = 0.9256 | 1099.05 | 2
348.15 K, x2 = 0.9667 | 1045.56 | –
348.15 K, x2 = 0.9912 | 997.23 | –
